From US20210220481A1, “BIOCOMPATIBLE TOLEROGENIC NANOPARTICLES” (INSERM (Institut National de la Santé et de la Recherche …, priority 2018, published 2021)

Key:
Solubility = type: physicochemical
[1] = target: T1, aryl hydrocarbon receptor (AhR) (Mus musculus, UniProt P30561); test: ITE biological activity: AhRR gene expression in BMDCs by qPCR; type: cell-based; conditions: 24 h, 14 μmol·L^−1 ITE or equivalent amount as NPs
T1 sequence (P30561 10-848): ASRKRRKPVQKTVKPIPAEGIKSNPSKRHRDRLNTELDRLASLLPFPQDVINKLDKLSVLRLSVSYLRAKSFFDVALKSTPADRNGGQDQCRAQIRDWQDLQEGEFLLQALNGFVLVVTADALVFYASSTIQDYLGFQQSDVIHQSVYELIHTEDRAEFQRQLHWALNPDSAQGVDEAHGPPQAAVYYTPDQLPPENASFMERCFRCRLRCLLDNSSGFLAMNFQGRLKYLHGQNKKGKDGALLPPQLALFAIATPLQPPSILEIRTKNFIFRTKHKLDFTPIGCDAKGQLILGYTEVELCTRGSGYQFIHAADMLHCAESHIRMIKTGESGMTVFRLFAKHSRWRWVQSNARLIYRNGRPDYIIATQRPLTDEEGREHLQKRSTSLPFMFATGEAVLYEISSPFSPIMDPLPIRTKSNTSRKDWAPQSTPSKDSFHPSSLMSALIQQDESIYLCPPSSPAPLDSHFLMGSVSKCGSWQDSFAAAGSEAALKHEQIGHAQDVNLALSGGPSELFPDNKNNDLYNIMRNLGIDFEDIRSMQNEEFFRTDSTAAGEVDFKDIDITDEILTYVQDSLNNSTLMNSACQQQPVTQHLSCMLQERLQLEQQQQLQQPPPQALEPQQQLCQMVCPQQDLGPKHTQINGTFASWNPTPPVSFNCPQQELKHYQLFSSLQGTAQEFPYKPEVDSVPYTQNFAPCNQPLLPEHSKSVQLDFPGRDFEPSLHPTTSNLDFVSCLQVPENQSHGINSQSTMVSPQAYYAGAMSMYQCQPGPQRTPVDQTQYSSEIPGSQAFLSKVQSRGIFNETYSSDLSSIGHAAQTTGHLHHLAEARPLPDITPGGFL
Experimental: Mouse bone marrow dendritic cells: BMDCs were prepared from progenitor cells isolated from the femurs and tibias of female mice between 8 and 10 wk of age, as previously described in Inaba et al. (“Generation of large numbers of dendritic cells from mouse bone marrow cultures supplemented with granulocyte/macrophage colony-stimulating factor”; J Exp Med 1992, 176 (6), 1693-702). Bone marrow cells were plated on 15 cm petri dishes cell culture for a final volume of 20 mL per plate in Iscove's Modified Dulbecco's Medium (IMDM) containing 10% FCS, penicillin/streptomycin 100 μg/ml, L-Glutamine 2 mmol.L^−1 and β-mercapthoethanol 50 μmol.L^−1, and supplemented with 10 ng/ml murine GM-CSF (R&D Systems) for 8 days. Half of the medium was replaced on day 4 of culture.
ITE biological activity. On day 7 of BMDC culture, cells were incubated 24 h with 14 μmol·L^−1 ITE in 0.2% DMSO and equivalent amount of ITE as USPIO-PEG-ITE NPs in water. On day 8, total RNA was prepared by the RNAspin mini kit (GE Healthcare). cDNA was obtained using the RevertAid RT Reverse Transcription Kit (Thermo Scientific) with 1 μg of total RNA. Quantitative PCR (qPCR) was performed with the SYBR Green method using Takyon ROX qPCR SYBR MasterMix blue dTTP (Eurogentec).

[2] = Quantification of NP uptake in organs by VSM magnetometry; type: in vivo, NOD and B6 mice
Experimental: For mechanistic studies, MRI and histological studies, 3 B6 mice/time points aged 10 and 12 weeks were used as control. 3 Female NOD mice/time points were used as pre-diabetic mice between 10 and 12 weeks of age. NPs were administrated intravenously (i.v.) as a bolus of 200 μmolFe/kg diluted in 200 μL of vehicle (NaCl 0.9%/Glucose 5%).
Quantification of NP uptake in organs by VSM: Pancreas, lung, liver, spleen, kidneys and PLN were collected 1 h, 5 h, 24 h, 48 h and 72 h after intravenous injection of USPIO-PEG-ITE-P3UMPI (200 μmolFe/kg) or vehicle (NaCl 0.9%/Glucose 5%) in NOD and B6 mice. Collected organs were frozen in liquid nitrogen, lyophilized and ground to a powder using a mortar and pestle. Sample magnetism was analyzed by a VSM (VSM Quantum Design, Versalab) at room temperature. Amount of iron per organ was calculated from the NP magnetization at saturation (expressed in emu/g of iron).

For `COC(=O)c1csc(C(=O)c2c[nH]c3ccccc23)n1` [ITE, 2-(1′H-indole-3′-carbonyl)-thiazole-4-carboxylic acid methyl ester], the Solubility (Solubility) was “soluble only in DMSO and ethanol”, the AhRR expression [1] was “induced” and the “Estimation of drug dose released in pancreas: ITE” value (“Estimation of drug dose released” for short) ([2]; B6 mice, 1 H after iv injection of USPIO-PEG-ITE-P3UmPI, considering no drug release before pancreas targeting) was 0.39 mmol. For the same molecule, the “Estimation of drug dose released” value ([2]; B6 mice, 5 H after iv injection) was 0.99 mmol, the “Estimation of drug dose released” value ([2]; B6 mice, 24 H after iv injection) was 0 mmol and the “Estimation of drug dose released” value ([2]; B6 mice, 48 H after iv injection) was 0.15 mmol. The “Estimation of drug dose released” value ([2]; B6 mice, 72 H after iv injection) was 0.33 mmol, the “Estimation of drug dose released” value ([2]; NOD mice, 1 H after iv injection) was 1.54 mmol and the “Estimation of drug dose released” value ([2]; NOD mice, 5 H after iv injection) was 2.98 mmol. The “Estimation of drug dose released” value ([2]; NOD mice, 24 H after iv injection) was 0.37 mmol, the “Estimation of drug dose released” value ([2]; NOD mice, 48 H after iv injection) was 1.78 mmol and the “Estimation of drug dose released” value ([2]; NOD mice, 72 H after iv injection) was 0.91 mmol.
